These results are taken from ChEMBL document CHEMBL5518249, “Structure-Guided Discovery and Preclinical Assessment of Novel (Thiophen-3-yl)aminopyrimidine Derivatives as Potent ERK1/2 Inhibitors” (J Med Chem, 2024).

The target of assay [1] is Mitogen-activated protein kinase 3 (Homo sapiens, UniProt P27361).
Description: Inhibition of ERK1 (unknown origin) assessed as luminescence in presence of ATP incubated for 90 mins by ADP-Glo kinase assay
In assay [2] the test system is RKO. The assay is described as follows: cells. The note with it: Homo sapiens, 24 h.
Description: Antiproliferative activity against human RKO cells assessed as cell viability incubated for 24 hrs by methyl thiazolyl tetrazolium (MTT) assay
In assay [3] the test system is MDA-MB-231. The assay is described as follows: cells. The settings on record: Homo sapiens, MDA-MB-231, 24 h.
Description: Antiproliferative activity against human MDA-MB-231 cells assessed as cell viability incubated for 24 hrs by methyl thiazolyl tetrazolium (MTT) assay
The test system of assay [4] is RKO. Nature of the assay: animal or person. It counts as functional, Homo sapiens. The settings on record: Mus musculus, po, 360 h, route ig, time 15 day, read-out: TGI.
Description: In vivo antitumor activity against human RKO cells xenografted in BALB/c mouse model assessed as tumor growth inhibition at 50 mg/kg, IG once daily for 15 days relative to control
Assay [5] deals with MDA-MB-231. Nature of the assay: animal or person. It is filed as functional, Homo sapiens. The settings on record: Mus musculus, MDA-MB-231, po, 360 h, route ig, time 15 day, read-out: TGI.
Description: In vivo antitumor activity against human MDA-MB-231 cells xenografted in BALB/c mouse model assessed as tumor growth inhibition at 50 mg/kg, IG once daily for 15 days relative to control

Each structure is given as a SMILES string. Bounds are passed on as bounds.

Chain of Mitogen-activated protein kinase 3 (P27361 whole entry): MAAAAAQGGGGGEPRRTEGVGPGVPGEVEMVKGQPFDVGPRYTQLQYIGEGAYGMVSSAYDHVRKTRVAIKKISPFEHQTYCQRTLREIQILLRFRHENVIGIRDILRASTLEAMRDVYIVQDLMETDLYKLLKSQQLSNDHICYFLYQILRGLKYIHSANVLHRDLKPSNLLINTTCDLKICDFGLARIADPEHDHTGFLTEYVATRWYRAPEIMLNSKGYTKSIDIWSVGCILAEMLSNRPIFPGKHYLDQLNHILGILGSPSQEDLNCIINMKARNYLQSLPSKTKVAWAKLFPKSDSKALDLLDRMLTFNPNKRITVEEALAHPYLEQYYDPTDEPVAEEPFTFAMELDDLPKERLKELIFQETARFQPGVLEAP

For orientation: IC50 means the concentration that gives 50% inhibition. Higher therefore signals a need for much substance. `Cn1nccc1Nc1ncc(Cl)c(-c2csc(C(=O)NC3CCOCC3)c2)n1` returned an IC50 in assay [1] of 25.4 nM.
For `Cn1cc(Nc2ncc(Cl)c(-c3csc(C(=O)NCc4ccc(F)c(Cl)c4)c3)n2)cn1`, the IC50 in the assay with RKO [2] was determined as 20.2 µM; in the assay with MDA-MB-231 [3] it was 36.6 µM.
On the same counts, the results for `Cn1nccc1Nc1ncc(Cl)c(-c2csc(C(=O)NCc3cccc(Br)c3)c2)n1` are more than 50 µM and more than 50 µM.
Taken in the same sequence, the figures for `Cn1nccc1Nc1ncc(Cl)c(-c2csc(C(=O)NCc3ccc(Cl)cc3F)c2)n1` were 39 µM and 48.2 µM.
As for `Cn1ccc(Nc2ncc(Cl)c(-c3csc(C(=O)NCc4ccc(F)c(Cl)c4)c3)n2)n1`, the IC50 in the assay on RKO [2] is 49.4 µM; in the assay with MDA-MB-231 [3], more than 50 µM.
As to `Cc1cnccc1Nc1ncc(Cl)c(-c2csc(C(=O)NCc3ccc(F)c(Cl)c3)c2)n1`, the 50% inhibitory concentration (IC50) in the assay with RKO [2] came to 5.41 µM; in the assay on MDA-MB-231 [3], 6.26 µM.
As for `Cn1nccc1Nc1ncc(Cl)c(-c2csc(C(=O)NCc3ccccc3Br)c2)n1`, the concentration for half-maximal inhibition (IC50) in the assay with RKO [2] and in the assay on MDA-MB-231 [3] was more than 50 µM in each case.
For `Cn1nccc1Nc1ncc(Cl)c(-c2csc(C(=O)NCc3ccc(C(F)(F)F)cc3)c2)n1`, the figures for the IC50 in the assay with RKO [2] and in the assay on MDA-MB-231 [3] were 41.2 µM and 39.4 µM, respectively.
Turning to `Cn1nccc1Nc1ncc(Cl)c(-c2csc(C(=O)NCc3ccc(F)cc3)c2)n1`, the IC50 amounted to 14.5 µM in the assay on RKO [2] and 15.8 µM in the assay with MDA-MB-231 [3].
On the same counts, the results for `Cn1cc(Nc2ncc(Cl)c(-c3csc(C(=O)NCc4ccc(F)c(Cl)c4)c3)n2)c(C(F)(F)F)n1` are more than 50 µM and more than 50 µM.
On the same counts, the results for `COc1ccccc1CNC(=O)c1cc(-c2nc(Nc3ccnn3C)ncc2Cl)cs1` are more than 50 µM and more than 50 µM.
As for `CC(C)Nc1cc(-c2c[nH]c(C(=O)N[C@H](CO)c3cccc(Cl)c3)c2)c(Cl)cn1` [ULIXERTINIB], the figures for the inhibition in vivo at 50 mg/kg with RKO [4] and with MDA-MB-231 [5] were 47.4% and 39.3%, respectively.
Turning to `Cn1nccc1Nc1ncc(Cl)c(-c2csc(C(=O)NCc3ccc(Cl)c(F)c3)c2)n1`, the figures for the IC50 in the assay with RKO [2] and with MDA-MB-231 [3] were 12.6 µM and 11.5 µM, respectively.
For `Cn1nccc1Nc1ncc(Cl)c(-c2csc(C(=O)NCc3cccc(C(F)(F)F)c3)c2)n1`, the IC50 is 24.5 µM with RKO [2] and 21.1 µM in the assay on MDA-MB-231 [3].
Consider `COc1cccc(CNC(=O)c2cc(-c3nc(Nc4ccnn4C)ncc3Cl)cs2)c1`, for which the IC50 with RKO [2] turned out to be 33.4 µM; in the assay on MDA-MB-231 [3], 29.4 µM.
Consider `Cn1nccc1Nc1ncc(Cl)c(-c2csc(C(=O)NCCN3CCOCC3)c2)n1`, for which the IC50 in the assay with RKO [2] came out at 50.6 µM; with MDA-MB-231 [3], 39.4 µM.
In the case of `Cn1nccc1Nc1ncc(Cl)c(-c2csc(C(=O)NCc3ccc(Cl)c(Cl)c3)c2)n1`, the IC50 was 10.2 µM in the assay on RKO [2] and 12.4 µM with MDA-MB-231 [3].
Taken in the same sequence, the figures for `Cn1nccc1Nc1ncc(Cl)c(-c2csc(C(=O)NCc3ccccc3F)c2)n1` were more than 50 µM and more than 50 µM.
On the same counts, the results for `Cn1nccc1Nc1ncc(Cl)c(-c2csc(C(=O)NCc3ccc(F)cc3F)c2)n1` are more than 50 µM and more than 50 µM.
